Assay results published in US8030344B2, “Inhibitors of histone deacetylase” (MethylGene Inc., priority 2007, dated 2011).

Columns and labels:
[1] = target: HDAC-1 (Homo sapiens, UniProt Q13547); experiment: Inhibition of histone deacetylase enzymatic (HDAC-1) activity, Boc-Lys(Ac)-AMC fluorescence assay; format: biochemical
Experimental: Inhibition of Histone Deacetylase Enzymatic (HDAC-1) Activity
(§1) The following protocol is used to assay the compounds of the invention. In the assay, the buffer used is 25 mM HEPES, pH 8.0, 137 mM NaCl, 2.7 mM KCl, 1 mM MgCl2 and the substrate is Boc-Lys(Ac)-AMC in a 50 mM stock solution in DMSO. The enzyme stock solution is 4.08 μg/mL in buffer.
(§2) The compounds are pre-incubated (2 μl in DMSO diluted to 13 μl in buffer for transfer to assay plate) with enzyme (20 μl of 4.08 μg/ml) for 10 minutes at room temperature (35 μl pre-incubation volume). The mixture is pre-incubated for 5 minutes at room temperature. The reaction is started by bringing the temperature to 37° C. and adding 15 μl substrate. Total reaction volume is 50 μl. The reaction is stopped after 20 minutes by addition of 50 μl developer, prepared as directed by Biomol (Fluor-de-Lys developer, Cat. # KI-105). A plate is incubated in the dark for 10 minutes at room temperature before reading (λEx=360 nm, λEm=470 nm, Cutoff filter at 435 nm). Similar assays are performed to measure HDAC-2 inhibitory activity

[2] = target: HDAC-2 (Homo sapiens, UniProt Q92769); experiment: Similar assay measuring HDAC-2 inhibitory activity; format: biochemical
Chain of HDAC-2 (Q92769 whole entry): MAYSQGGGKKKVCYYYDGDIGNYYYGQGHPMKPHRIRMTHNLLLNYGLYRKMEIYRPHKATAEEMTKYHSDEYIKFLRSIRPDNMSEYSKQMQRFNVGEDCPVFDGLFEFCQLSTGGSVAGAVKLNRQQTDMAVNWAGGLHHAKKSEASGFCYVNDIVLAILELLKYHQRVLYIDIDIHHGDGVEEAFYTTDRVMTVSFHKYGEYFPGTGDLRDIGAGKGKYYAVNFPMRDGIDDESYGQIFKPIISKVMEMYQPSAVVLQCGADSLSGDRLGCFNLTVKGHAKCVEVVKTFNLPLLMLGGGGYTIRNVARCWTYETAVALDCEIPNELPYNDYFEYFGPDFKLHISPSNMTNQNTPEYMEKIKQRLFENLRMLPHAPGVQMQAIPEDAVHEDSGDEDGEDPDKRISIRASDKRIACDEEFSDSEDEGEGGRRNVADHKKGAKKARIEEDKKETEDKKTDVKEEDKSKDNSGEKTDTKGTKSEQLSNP
Experimental: as §1, §2

[3] = system: HCT116 cells; experiment: MTT assay on HCT116 cells; format: cell-based; conditions: Homo sapiens, HCT-116; 72 hours incubation; concentration reducing cell numbers to 50% of solvent treated cells
Experimental: (§3) HCT116 cells (2000/well) are plated into 96-well tissue culture plates one day before compound treatment. Representative compounds at various concentrations were added to the cells. The cells are incubated for 72 hours at 37° C. in 5% CO2 incubator. MTT (3-[4,5-dimethylthiazol-2-yl]-2,5 diphenyl tetrazolium bromide, Sigma) is added at a final concentration of 0.5 mg/ml and incubated with the cells for 4 hours before one volume of solubilization buffer (50% N,N-dimethylformamide, 20% SDS, pH 4.7) is added onto the cultured cells. After overnight incubation, solubilized dye is quantified by calorimetric reading at 570 nM using a reference at 630 nM. OD values are converted to cell numbers according to a standard growth curve of the relevant cell line. The concentration which reduces cell numbers to 50% of that of solvent treated cells is determined as MTT IC50. A similar assay is performed on HMEC cells.

[4] = system: HMEC cells; experiment: MTT assay on HMEC cells; format: cell-based; conditions: Homo sapiens; similar MTT assay on HMEC cells
Experimental: as §3

Chain of HDAC-1 (Q13547 whole entry): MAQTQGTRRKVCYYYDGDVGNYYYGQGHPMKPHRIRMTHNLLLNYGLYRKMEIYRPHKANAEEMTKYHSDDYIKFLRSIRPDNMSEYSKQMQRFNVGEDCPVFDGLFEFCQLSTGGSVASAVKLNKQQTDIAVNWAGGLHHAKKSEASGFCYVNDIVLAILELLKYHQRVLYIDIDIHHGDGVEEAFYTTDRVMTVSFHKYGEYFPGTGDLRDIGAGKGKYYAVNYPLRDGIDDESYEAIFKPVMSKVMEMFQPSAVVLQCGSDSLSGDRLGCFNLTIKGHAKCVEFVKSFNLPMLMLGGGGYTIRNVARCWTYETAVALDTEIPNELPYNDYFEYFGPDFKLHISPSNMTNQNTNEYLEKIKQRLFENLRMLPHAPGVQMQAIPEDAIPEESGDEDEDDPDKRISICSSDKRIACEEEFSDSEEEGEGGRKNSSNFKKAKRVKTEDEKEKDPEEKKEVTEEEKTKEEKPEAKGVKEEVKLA

| SMILES | IC50 [1] | IC50 [2] | IC50 [3] | IC50 [4] |
| --- | --- | --- | --- | --- |
| CN(C)CC(=O)N[C@H]1CCN(c2ccc(C(=O)Nc3ccccc3N)cc2)C1 [Compound 141, (S)-N-(2-Aminophenyl)-4-(3-(2-(dimethylamino)acetamido)pyrrolidin-1-yl)benzamide] | ≤ 500 nM | ≤ 5000 nM | ≤ 5000 nM | > 50 µM |
| Nc1ccccc1NC(=O)c1ccc(N2CC[C@H](NC(=O)OCc3ccncc3)C2)cc1 [Compound 142, (S)-Pyridin-4-ylmethyl 1-(4-(2-aminophenylcarbamoyl)phenyl)pyrrolidin-3-yl carbamate] | ≤ 100 nM | ≤ 500 nM | ≤ 1000 nM | ≤ 50 µM |
| Nc1ccccc1NC(=O)c1ccc(N2CC[C@H](NC(=O)OCc3ccccn3)C2)cc1 [Compound 143, (S)-Pyridin-2-ylmethyl 1-(4-(2-aminophenylcarbamoyl)phenyl)pyrrolidin-3-yl carbamate] | ≤ 500 nM | ≤ 500 nM | ≤ 1000 nM | ≤ 50 µM |
| Nc1ccccc1NC(=O)c1ccc(N2CC[C@H](NC(=O)OCc3ccoc3)C2)cc1 [Compound 145, (S)-Furan-3-ylmethyl 1-(4-(2-aminophenylcarbamoyl)phenyl) pyrrolidin-3-yl carbamate] | ≤ 100 nM | ≤ 500 nM | ≤ 500 nM | ≤ 50 µM |
| COC(=O)N[C@H]1CCN(c2ccc(C(=O)Nc3ccccc3N)cn2)C1 [Compound 155, (S)-Methyl 1-(5-(2-aminophenylcarbamoyl)pyridin-2-yl)pyrrolidin-3-ylcarbamate] | ≤ 500 nM | ≤ 5000 nM | ≤ 5000 nM | ≤ 50 µM |
| CCOC(=O)N[C@H]1CCN(c2ccc(C(=O)Nc3ccccc3N)cn2)C1 [Compound 156, (S)-Ethyl 1-(5-(2-aminophenylcarbamoyl)pyridin-2-yl)pyrrolidin-3-ylcarbamate] | ≤ 500 nM | ≤ 1000 nM | ≤ 1000 nM | ≤ 50 µM |
| CCNC(=O)O[C@H]1CCN(c2ccc(C(=O)Nc3ccccc3N)cc2)C1 [Compound 162, (S)-1-(4-(2-Aminophenylcarbamoyl)phenyl)pyrrolidin-3-yl ethyl carbamate] | ≤ 500 nM | ≤ 5000 nM | ≤ 5000 nM | > 50 µM |
| Nc1ccccc1NC(=O)c1ccc(N2CC[C@H](OC(=S)NCCN3CCOCC3)C2)cc1 [Compound 163, (S)-O-1-(4-(2-Aminophenylcarbamoyl)phenyl)pyrrolidin-3-yl 2-morpholinoethylcarbamothioate] | ≤ 500 nM | ≤ 5000 nM | ≤ 5000 nM | ≤ 50 µM |
| COc1cc(CN(C(=O)OCc2ccccc2)[C@H]2CCN(c3ccc(C(=O)Nc4ccccc4N)cc3)C2)cc(OC)c1OC [Compound 197, (S)-benzyl 1-(4-(2-aminophenylcarbamoyl)phenyl)-pyrrolidin-3-yl(3,4,5-trimethoxybenzyl)carbamate] | ≤ 500 nM | ≤ 500 nM | ≤ 1000 nM | > 50 µM |
| CC(C)OC(=O)N[C@H]1CCN(c2ccc(C(=O)Nc3ccccc3N)cc2)C1 [Compound 198, (S)-isopropyl 1-(4-(2-aminophenylcarbamoyl)phenyl)-pyrrolidin-3-ylcarbamate] | ≤ 500 nM | ≤ 500 nM | ≤ 1000 nM | ≤ 50 µM |
| Nc1ccccc1NC(=O)c1ccc(N2CC[C@H](NC(=O)OCC3CC3)C2)cc1 [Compound 199, (S)-cyclopropylmethyl 1-(4-(2-aminophenylcarbamoyl)phenyl)-pyrrolidin-3-ylcarbamate] | ≤ 100 nM | ≤ 500 nM | ≤ 500 nM | ≤ 50 µM |
| Nc1ccccc1NC(=O)c1ccc(N2CC[C@H](NC(=O)OC3CCOCC3)C2)cc1 [Compound 200, (S)-tetrahydro-2H-pyran-4-yl 1-(4-(2-aminophenylcarbamoyl)phenyl)-pyrrolidin-3-ylcarbamate] | ≤ 500 nM | ≤ 500 nM | ≤ 500 nM | > 50 µM |
